According to US8063225B2, “Tricyclic compound derivatives useful in the treatment of neoplastic diseases, inflammatory disorders and immunomodulatory disorders” (Chembridge Corporation, priority 2006, dated 2011):

Key:
IGF1R tyrosine kinase = target: T1, IGF1R tyrosine kinase (Homo sapiens, UniProt P08069); experiment: IGF1R tyrosine kinase assay (Kinase-Glo ATP depletion or PT66/PT100 AlphaScreen); conditions: biochemical tyrosine kinase assay
T1 construct: 6×His- or GST-tagged kinase domain fragments of the corresponding RTKs expressed in baculovirus system; host or cells: baculovirus system
Protocol: (§1) To determine inhibition of several tyrosine kinases, such as IGF1R, InsR, Alk, TrkA and Jak2, kinase assays are conducted using either Kinase-Glo (Promega) or AlphaScreen (PerkinElmer) kinase assay platforms. The Kinase-Glo Luminescent Kinase Assay is a homogeneous method for measuring kinase activity by determining the amount of ATP remaining after a kinase reaction. The luminescent signal is proportional to the amount of ATP and inversely proportional to the amount of kinase activity. Tyrosine kinase PT66 AlphaScreen Assay is a high-sensitivity homogeneous, anti-phosphotyrosine antibody-mediated luminescent proximity method measuring, incorporation of phosphate in synthetic poly(Glu-Tyr) substrate. The kinase preparations used consist of purified recombinant, 6×His- or GST-tagged kinase domain fragments of the corresponding RTKs expressed in baculovirus system.
(§2) The IGF1R tyrosine kinase is assayed in Kinase-Glo ATP depletion assay using the synthetic polymer poly(Glu-Tyr, 4:1) (Sigma Chemicals) as a phosphoacceptor substrate. Each reaction mixture consists of a total volume of 10 μl and contains 40 ng of the enzyme, 5 μg of poly(Glu-Tyr), 10 μM of ATP and variable concentrations of test compounds. The mixtures also contain 50 mM Tris-HCl, pH 7.5; 5 mM MgCl2; 5 mM MnCl2; 2 mM DTT and 0.01% Tween 20. The reaction mixtures are incubated at 37° C. for 60 minutes and residual concentration of ATP in the mixture is determined by adding luciferase-containing Kinase-Glo (Promega) development reagent and counting luminescence levels using Fusion Universal Microplate Analyzer (PerkinElmer). Tested compounds are dissolved in dimethyl sulfoxide to a stock concentration of 10 mM and are typically evaluated in the assay at eight concentrations in 1 nM to 20 μM range, each in quadruplicate. […] IC50 values are derived by non-linear regression analysis using Prism 3.0 software (Graphpad Software). Other tyrosine kinases are assayed according to the same protocol after titrating amount of the enzyme to provide optimal signal-to-noise ratio and no more than 30% of total ATP consumption in the reaction conditions used.
(§3) The IGF1R tyrosine kinase is assayed in Phosphotyrosine (PT66 or PT 100) AlphaScreen chemiluminescent assay (PerkinElmer) according to the manufacturerer's recommendations. Each kinase reaction mixture consists of a total volume of 15 μl and contains 0.1-1 ng of the enzyme, 7 ng of biotinylated poly(Glu-Tyr) (Cis-Bio), 10 μM of ATP and variable concentrations of test compounds. The mixtures also contain 50 mM Tris-HCl, pH 7.5; 5 mM MgCl2; 5 mM MnCl2; 2 mM DTT and 0.01% Tween 20. The reaction mixtures are incubated at room temperature for 30 minutes. Ten (10) μl of the mixture of […] and donor beads (as supplied by the manufacturer) is then added to the reaction and the incubation is continued for an additional 60 minutes.

InsR = target: T2, InsR (Homo sapiens, UniProt P06213); experiment: Tyrosine kinase assay (Kinase-Glo or AlphaScreen), InsR; conditions: biochemical tyrosine kinase assay
T2 construct: 6×His- or GST-tagged kinase domain fragments of the corresponding RTKs expressed in baculovirus system; host or cells: baculovirus system
Protocol: as §1, §2, §3

Alk = target: T3, Alk (Homo sapiens, UniProt Q9UM73); experiment: Tyrosine kinase assay (Kinase-Glo or AlphaScreen), Alk; conditions: biochemical tyrosine kinase assay
T3 construct: 6×His- or GST-tagged kinase domain fragments of the corresponding RTKs expressed in baculovirus system; host or cells: baculovirus system
Protocol: as §1, §2, §3

Karpas-299 = experiment: Cell proliferation inhibition, Cell Titer-Glo, Karpas-299; format: cell-based; conditions: Homo sapiens; cell proliferation assay, Karpas-299 cells
From the text: (§4) IGF1R and other tyrosine kinase inhibitors can inhibit the proliferation of certain cancer cell lines indicating their possible therapeutic utility for treating the corresponding cancer types. Cancer cell lines of interest and control normal lines, including CHO, HEK293, BA/F3, COLO205, PC3, DU145, MCF7, Panc1, ACHN, Hep G2, H460, K562, TT, U87-MG, CAOV-3, SK-MEL5, Karpas 299 and human multiple myeloma cell lines H929, MM1s, MM1r, UTMC2, CPM2, KMS11, My5, KMS12PE, My7, JJN3, KMS18, U266, SKMM2, RPMI-8226 are plated in white, clear-bottomed 384-well cell culture plates at 2500-5000 cells per well and supplied with dilutions of tested compounds After a desired period of time (typically 3 days), the number of viable cells is quantitated by using Cell Titer-Glo Luminescent Cell Viability Assay (Promega), a cell proliferation assay system based on detection of total amount of ATP present as a measure of cell metabolic activity. The plated cells are mixed with the Cell Titer-Glo developing reagent and counted in a luminescence multiwell plate reader according to the standard manufacturer's protocol to generate IC50 curves for cell proliferation inhibition. Results are typically reported as percent of growth (% viability =(OD72h(compound)−ODday0))/(OD72h(no compound)−ODday0). Alternatively, viable cells are quantitated by using the conventional colorimetric MTT assay. The MTT assay is based on the cleavage of the yellow tetrazolium salt MTT to purple formazan crystal by metabolic active cells. The formazan is then solubilized, and the concentration determined by optical density at 570 nm. The cells plated and incubated with a compound as described above are supplemented with the solution of MTT and incubated for 2-3 hours. The growth medium is removed and dimethyl sulfoxide is added into each well to dissolve the formazan. The absorbance is measured on an ELISA plate reader with a test wavelength of 570 nm and a background subtraction wavelength of 630 nm to obtain sample signal (OD570-OD630). […] The results are reported in terms of IC50 value for a particular compound and a cell line in the standard 3-day proliferation assay using Cell Titer-Glo. […] The results are reported in terms of IC50 value for a particular compound and a cell line in the standard 3-day proliferation assay using MTT assay.

Ba/F3 = experiment: Cell proliferation inhibition, Cell Titer-Glo, Ba/F3; format: cell-based; conditions: Mus musculus, BaF3; cell proliferation assay, Ba/F3 cells
From the text: as §4

K562 = experiment: Cell proliferation inhibition, Cell Titer-Glo, K562; format: cell-based; conditions: Homo sapiens; cell proliferation assay, K562 cells
From the text: as §4

Jak2 = target: T4, Jak2 (Homo sapiens, UniProt O60674); experiment: Tyrosine kinase assay (Kinase-Glo or AlphaScreen), Jak2; conditions: biochemical tyrosine kinase assay
T4 construct: 6×His- or GST-tagged kinase domain fragments of the corresponding RTKs expressed in baculovirus system; host or cells: baculovirus system
Protocol: as §1, §2, §3

T4 sequence (O60674 849-1124 limits assumed, species assumed): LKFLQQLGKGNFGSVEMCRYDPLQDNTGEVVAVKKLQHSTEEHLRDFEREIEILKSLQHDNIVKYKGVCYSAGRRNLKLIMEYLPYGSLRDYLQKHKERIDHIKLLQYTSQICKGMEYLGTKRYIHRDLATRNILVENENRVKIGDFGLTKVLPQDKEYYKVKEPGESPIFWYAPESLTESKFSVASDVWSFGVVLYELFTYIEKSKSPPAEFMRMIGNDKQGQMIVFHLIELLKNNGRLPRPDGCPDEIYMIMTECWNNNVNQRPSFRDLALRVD
T2 sequence (P06213 1023-1298 limits assumed, species assumed): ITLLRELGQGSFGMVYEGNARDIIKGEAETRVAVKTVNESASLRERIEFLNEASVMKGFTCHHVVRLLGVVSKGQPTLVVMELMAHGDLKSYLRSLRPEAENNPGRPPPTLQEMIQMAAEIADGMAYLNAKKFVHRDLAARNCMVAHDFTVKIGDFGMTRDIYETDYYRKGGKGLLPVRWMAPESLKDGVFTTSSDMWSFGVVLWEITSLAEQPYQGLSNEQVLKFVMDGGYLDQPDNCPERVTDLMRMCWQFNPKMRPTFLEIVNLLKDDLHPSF
T3 sequence (Q9UM73 1116-1392 limits assumed, species assumed): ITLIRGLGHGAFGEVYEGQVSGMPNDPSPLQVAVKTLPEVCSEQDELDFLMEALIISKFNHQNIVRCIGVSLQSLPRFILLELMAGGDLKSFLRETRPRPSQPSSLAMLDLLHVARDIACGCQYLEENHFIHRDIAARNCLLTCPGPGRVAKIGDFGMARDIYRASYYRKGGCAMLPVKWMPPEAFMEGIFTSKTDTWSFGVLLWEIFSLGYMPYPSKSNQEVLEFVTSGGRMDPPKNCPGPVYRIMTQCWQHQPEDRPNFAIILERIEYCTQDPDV
T1 sequence (P08069 999-1274 limits assumed): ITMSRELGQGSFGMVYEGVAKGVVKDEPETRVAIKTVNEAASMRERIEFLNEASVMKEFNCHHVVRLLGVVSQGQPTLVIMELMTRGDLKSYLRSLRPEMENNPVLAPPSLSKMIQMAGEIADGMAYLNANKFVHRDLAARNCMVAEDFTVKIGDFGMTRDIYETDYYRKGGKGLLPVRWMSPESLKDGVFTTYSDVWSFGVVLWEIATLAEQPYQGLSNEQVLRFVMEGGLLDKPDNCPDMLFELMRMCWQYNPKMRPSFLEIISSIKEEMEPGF

| IC50 (IGF1R tyrosine kinase) [µM] | IC50 (InsR) [µM] | IC50 (Alk) [µM] | IC50 (Karpas-299) [µM] | IC50 (Ba/F3) [µM] | IC50 (K562) [µM] | IC50 (Jak2) [µM] | Structure (SMILES) |
| --- | --- | --- | --- | --- | --- | --- | --- |
| 5 to 15 | 5 to 15 | 0.5 to 5 | > 15 | > 15 | > 15 | 0.5 to 5 | CN1CCC(N2C(=O)c3cc4nc(-c5c(NC[C@@H](O)COc6cccc(N7CCOCC7)c6)ccnc5O)[nH]c4cc3C2=O)CC1 [compound 53] |
| 0.5 to 5 | 5 to 15 | > 15 | > 15 | > 15 | > 15 | 5 to 15 | CN(C)CC(C)(C)CN1C(=O)c2cc3nc(-c4c(NCC(O)COc5cccc(Cl)c5)ccnc4O)[nH]c3cc2C1=O (stereo not drawn) [compound 61] |
| 0.5 to 5 | 0.5 to 5 | < 0.5 | 0.5 to 5 | 0.5 to 5 | 0.5 to 5 | 0.5 to 5 | CN1CCC(N2C(=O)c3cc4nc(-c5c(N[C@@H](CO)Cc6ccccc6)cc[nH]c5=O)[nH]c4cc3C2=O)CC1 [compound 5] |
| 0.5 to 5 | 5 to 15 | 0.5 to 5 | 5 to 15 | 5 to 15 | > 15 | 5 to 15 | CSCc1cc(C)cc(C)c1OC[C@H](O)CNc1cc[nH]c(=O)c1-c1nc2cc3c(cc2[nH]1)C(=O)N(C1CCN(C)CC1)C3=O [compound 81] |
| < 0.5 | 0.5 to 5 | 0.5 to 5 | > 15 | > 15 | > 15 | 0.5 to 5 | CN1CCC(N2C(=O)c3cc4nc(-c5c(NC[C@@H](O)COc6cccc7c6OC(F)C(F)(F)O7)cc[nH]c5=O)[nH]c4cc3C2=O)CC1 (stereo partly drawn) [compound 82] |
| 0.5 to 5 | 0.5 to 5 | 0.5 to 5 | 0.5 to 5 | 0.5 to 5 | 0.5 to 5 | 0.5 to 5 | CN1CCC(N2C(=O)c3cc4nc(-c5c(NCC(O)COc6ccc(Cl)cc6)cc[nH]c5=O)[nH]c4cc3C2=O)CC1 (stereo not drawn) [compound 39] |
| 5 to 15 | 0.5 to 5 | 5 to 15 |  |  |  | 0.5 to 5 | COc1ccc2c(ccn2C[C@H](O)CNc2cc[nH]c(=O)c2-c2nc3cc4c(cc3[nH]2)CN(C2CCN(C)CC2)C4=O)c1 [compound 170] |
| < 0.5 | < 0.5 | 0.5 to 5 | 5 to 15 | > 15 |  | 0.5 to 5 | Cc1c(Cl)cccc1OC[C@H](O)CNc1cc[nH]c(=O)c1-c1nc2cc3c(cc2[nH]1)C(=O)N(CCCN1CCCC1)C3=O [compound 115] |
| 0.5 to 5 | 0.5 to 5 | 5 to 15 | 5 to 15 | 5 to 15 |  | 0.5 to 5 | O=C1CCCN1CCCN1C(=O)c2cc3nc(-c4c(NC[C@@H](O)c5cccc(Cl)c5)cc[nH]c4=O)[nH]c3cc2C1=O [compound 47] |
| 0.5 to 5 | 0.5 to 5 | 0.5 to 5 | 5 to 15 | 5 to 15 |  | 0.5 to 5 | O=C1c2cc3nc(-c4c(NC[C@@H](O)c5cccc(Cl)c5)cc[nH]c4=O)[nH]c3cc2C(=O)N1CCCn1ccnc1 [compound 45] |
| < 0.5 | 0.5 to 5 | 5 to 15 | > 15 | > 15 |  | 0.5 to 5 | Cc1c2c(cc3[nH]c(-c4c(NC[C@@H](O)COc5c(F)ccc(Cl)c5F)cc[nH]c4=O)nc13)C(=O)N(C1CCN(C)CC1)C2=O [compound 122] |
| < 0.5 | < 0.5 | 0.5 to 5 |  |  |  | 0.5 to 5 | COCCN1CCC(CN2C(=O)c3cc4nc(-c5c(NC[C@@H](O)c6cccc(Cl)c6)cc[nH]c5=O)[nH]c4cc3C2=O)CC1 [compound 24] |
| 0.5 to 5 | 0.5 to 5 | 0.5 to 5 |  |  |  | 0.5 to 5 | O=C1c2cc3nc(-c4c(NC[C@@H](O)c5cccc(Cl)c5)cc[nH]c4=O)[nH]c3cc2C(=O)N1CCc1c[nH]cn1 [compound 9] |
| < 0.5 | < 0.5 | 5 to 15 | 0.5 to 5 | 0.5 to 5 |  | 0.5 to 5 | Cc1ccc(OC[C@H](O)CNc2cc[nH]c(=O)c2-c2nc3cc4c(cc3[nH]2)C(=O)N(CCCN2CCCC2)C4=O)c(C)c1 [compound 48] |
| 0.5 to 5 | 0.5 to 5 | 0.5 to 5 | 5 to 15 | 0.5 to 5 |  | 0.5 to 5 | Cc1c(Cl)cccc1OC[C@H](O)CNc1cc[nH]c(=O)c1-c1nc2c(C)c3c(cc2[nH]1)C(=O)N(C1CCN(C)CC1)C3=O [compound 121] |
| < 0.5 | < 0.5 | 0.5 to 5 | 0.5 to 5 | 0.5 to 5 |  | 0.5 to 5 | O=C1c2cc3nc(-c4c(NC[C@@H](O)COc5c(F)ccc(Cl)c5F)cc[nH]c4=O)[nH]c3cc2C(=O)N1CC1CCN(CCO)CC1 [compound 120] |
| 0.5 to 5 | 5 to 15 | > 15 |  |  |  | 0.5 to 5 | CN1CCC(N2C(=O)c3cc4nc(-c5c(NCC(O)c6ccncc6)cc[nH]c5=O)[nH]c4cc3C2=O)CC1 (stereo not drawn) [compound 7] |
| > 15 | > 15 | > 15 | 0.5 to 5 | > 15 |  | > 15 | COCCCN1C(=O)c2cc3nc(-c4c(NC[C@@H](O)COc5ccc(C)cc5C)cc[nH]c4=O)[nH]c3cc2C1=O [compound 109] |
| > 15 | > 15 | > 15 |  |  |  | > 15 | O=C1c2cc3nc(-c4c(NC[C@@H](O)c5cccc(Cl)c5)cc[nH]c4=O)[nH]c3cc2C(=O)N1CCc1cccnc1 [compound 27] |
| < 0.5 | 0.5 to 5 | > 15 | 5 to 15 | 5 to 15 |  | > 15 | O=C1c2cc3nc(-c4c(NC[C@@H](O)c5cccc(Cl)c5)cc[nH]c4=O)[nH]c3cc2C(=O)N1CC(O)CO (stereo partly drawn) [compound 46] |
| < 0.5 | < 0.5 | 5 to 15 |  |  |  | < 0.5 | O=C1c2cc3nc(-c4c(NC[C@@H](O)c5cccc(Cl)c5)cc[nH]c4=O)[nH]c3cc2C(=O)N1C(CO)CO [compound 25] |
